Experimental data as given in PMC5321741, “Arylmethylamino steroids as antiparasitic agents” (Nature Communications, 2017).
Where “and” joins values, the source holds several entries; their conditions need not be identical. Equal entries are not always repeated. Structures can show the parent of a compound that is named as a salt. Where two headings read alike, the source gives them in different places.

Assays:
[1] = test system: P. falciparum (strain 3D7); assay: 72 h 3H-hypoxanthine incorporation assay, asexual blood stages; format: cell-based, Plasmodium falciparum; settings: Plasmodium falciparum
HUVEC = assay: antiproliferative activity on HUVEC cells; format: cell-based; settings: Homo sapiens, HUVEC, 72 h
Procedure: (§1) Compounds were tested for their antiproliferative activity on HUVEC and K-562 cells and for cytotoxicity on HeLa cells using standard protocols. K-562 (DSM ACC 10), HUVEC (ATCC CRL-1730), and HeLa (DSM ACC 57) cells were cultured as described previously. To assay the antiproliferative and cytotoxic effect, procedures were carried out as described before. In brief, for each experiment with K-562 and HeLa ∼10,000 cells were seeded per well of the 96-well microplates. For the cytotoxicity assay, the HeLa cells were preincubated for 48 h without the test substances. Cells were incubated for 72 h at 37 °C in a humidified atmosphere and 5% CO2. Suspension cultures of K-562 in microplates were analysed by an electronic cell analyzer system CASY 1 (SCHÄRFE, Reutlingen, Germany). The monolayer of the HUVEC and HeLa cells were fixed by glutaraldehyde (MERCK) and stained with a 0.05% solution of methylene blue (SERVA). After gently washing, the stain was eluted by 0.2 ml of 0.33 N HCl in the wells. The optical densities were measured at 660 nm in a microplate reader. The calculations of the different values of GI50 and CC50 were performed with the software Magellan (TECAN).

K-562 = assay: antiproliferative activity on K-562 cells; format: cell-based; settings: Homo sapiens, K562, 72 h
Procedure: as §1

[2] = cytotoxicity on HeLa cells; format: cell-based; settings: human, HeLa cells
Procedure: as §1

[3] = test system: P. berghei GFP ANKA malaria strain; assay: P. berghei mouse model (Peter's test); format: in vivo, Plasmodium berghei in NMRI mice; settings: for % activity (reduction of parasitaemia) / % of control / Parasitized RBC over 100, Average / Parasitized RBC over 100, individual mice M1-M3: day 4
Procedure: The animal experiments described here were performed at the Swiss Tropical and Public Health Institute (Swiss TPH, Basel, Switzerland), they were approved by the Swiss Cantonal Authorities (‘Kantonales Veterinäramt Basel Stadt') adhering to local and national regulations of laboratory animal welfare in Switzerland. The best compounds were tested in the murine P. berghei model essentially as described. The infection was initiated at day 0 with the P. berghei GFP ANKA malaria strain (donation from AP Waters and CJ Janse, Leiden University). From donor mice (female NMRI mice, 18–20 grams (about 3 weeks) from Charles River Germany) with ∼30% parasitaemia, heparinized blood was taken and diluted in physiological saline to 10^8 parasitized erythrocytes/ml. An aliquot (0.2 ml) of this suspension was injected intravenously into experimental and control groups of mice (female NMRI mice, 18–20 grams (about 3 weeks) from Charles River Germany). Usually, in untreated control mice parasitaemia rose regularly to ∼30% by day 3 post-infection. Control mice died between days 6 and 7 post infection. In the experiments described here, however, control animals (n=5) were killed on day 4 post infection for ethical reasons.
The steroid compounds were prepared at an appropriate concentration as a solution/suspension in Tween 80/alcohol (7:3, Tween 80 and absolute ethanol, respectively), followed by a 10x dilution in water. […] The route of administration was i.p., p.o., s.c. in a volume of 10 ml kg^−1.
The degree of infection (parasitaemia expressed in % of infected erythrocytes) was determined by FACS analysis on day 4 (96 h post infection). The difference of the mean infection rate of the control group (=100%) to the test group was calculated and expressed as a percent reduction. For example, activity determination with a mean of 2% parasitaemia in treated mice and a mean of 40% parasitaemia in the control animals is calculated as follows: (40−2%)/40% × 100=95% activity. The survival time in days was recorded up to 30 days after infection. A compound was considered curative if the animal survived to day 30 after infection with no detectable parasites (confirmed by light microscopy).

[4] = test system: adult Schistosoma mansoni; assay: schistosome in vitro culture with inhibitor treatment; format: cell-based
P. falciparum NF54 = assay: IC50 speed assay; format: cell-based, Plasmodium falciparum; settings: for IC50: Plasmodium falciparum, mean±s.d., three biological replicates
Procedure: To assess the rapidity of growth inhibition induced by the steroid compounds, the so-called IC50 speed assay[16] was conducted for compound 1o on P. falciparum NF54 (Fig. 2a,b).

haem = assay: ESI-MS collision-induced dissociation of haem adducts; format: binding; settings: 50 µM haem and 50 µM substrate
Procedure: Compound Molar Adduct DV50 Bottom Dissociation mass [Haem+S] (V) plateau Constant
Supplementary Table 7. ESI-MS-CID data (m/z, calculated DV50 = dissociation voltage at 50% and % bottom plateau) of the [haematin-drug]+ adducts and dissociation constants (KD, µM) of the haematin-drug complexes measured with absorption spectrophotometric titrations.
Conditions: 50 µM haem and 50 µM substrate in H2O/CH3CN (5/95) + 0.1% formic acid.
Stability responses of the haem substrate adduct were obtained via ESI-CID experiments.
Positive mode; fragmentor voltage from 20 V to 400 V with 20 V increments. […]
- 41/120 g), and complete dissolution was achieved using an ultrasonic bath. All solutions were protected from daylight to avoid any photochemical degradation. All the physiochemical measurements were carried out at 25.0(2) °C. […]
Electrospray mass spectrometric measurements stopping point
Electrospray mass spectra of the haem complexes were obtained with an Agilent Technologies 6120 quadrupole equipped with an electrospray (ESI) interface. For

[5] = 3D7, 72 h 3H-hypoxanthine incorporation, asexual blood stages, read-out: Antiplasmodial activity IC50 Pf (3D7)
[6] = NF54, read-out: IC50 24 h, 24 h compound incubation
[7] = NF54, 48 h compound incubation, read-out: IC50 48 h
[8] = NF54, 72 h compound incubation, read-out: IC50 72 h

Compound: COc1ccc2c(c1)CCC1C2CC[C@@]2(C)C1CC[C@@H]2NCc1ccccc1O (stereo partly shown) [2c]
- IC50 [1, 5]: 0.073 µM
- GI50 (HUVEC): 10 µM
- GI50 (K-562): 5.1 µM
- CC50 at 72 h [2]: 42.9 µM
- Mouse survival in days, Average ([3]; 3x 10 mg/kg s.c.): 10 days
- % activity (reduction of parasitaemia) ([3]; 3x 10 mg/kg s.c.): 47%
- Mouse survival in days, Average ([3]; 3x 30 mg/kg s.c.): 14 days
- % activity (reduction of parasitaemia) ([3]; 3x 30 mg/kg s.c.): 87%
- Mouse survival in days, Average ([3]; 3x 100 mg/kg p.o.): 16 days
- % activity (reduction of parasitaemia) ([3]; 3x 100 mg/kg p.o.): 99%

Compound: Oc1ccccc1CNc1ccc2ccc3cccc4ccc1c2c34 [20c]
- IC50 ([1]; 3D7, non-steroid-derived analogs, read-out: IC50 on P. falciparum 3D7 asexual blood stages): 5.6 µM
- melting point: 160 to 163 °C

Compound: Oc1ccccc1CNc1ccccc1 (as salt: perchlorate) [19c]
- melting point: 183 to 186 °C

Compound: COc1ccc2c(c1)CCC1C2CC[C@@]2(C)C1CC[C@H]2NCc1ccccc1O (stereo partly shown) [1c]
- IC50 [1, 5]: 0.0074 µM
- GI50 (HUVEC): 17.1 µM
- GI50 (K-562): 5.9 µM
- CC50 at 72 h [2]: > 128 µM
- Mouse survival in days, Average ([3]; 3x 10 mg/kg p.o.): 9 days
- Mouse survival in days, individual mice M1-M3 ([3]; 3x 10 mg/kg p.o.): 8 days and 11 days and 7 days
- % activity (reduction of parasitaemia) ([3]; 3x 10 mg/kg p.o.): 47%
- % of control ([3]; 3x 10 mg/kg p.o.): 53%
- Parasitized RBC over 100, Average ([3]; 3x 10 mg/kg p.o.): 36
- Parasitized RBC over 100, individual mice M1-M3 ([3]; 3x 10 mg/kg p.o.): 28 and 26 and 53
- Mouse survival in days, Average ([3]; 3x 10 mg/kg s.c.): 7 days
- Mouse survival in days, individual mice M1-M3 ([3]; 3x 10 mg/kg s.c.): 7 days and 6 days and 8 days
- % activity (reduction of parasitaemia) ([3]; 3x 10 mg/kg s.c.): < 40%
- % of control ([3]; 3x 10 mg/kg s.c.): 83%
- Parasitized RBC over 100, Average ([3]; 3x 10 mg/kg s.c.): 56
- Parasitized RBC over 100, individual mice M1-M3 ([3]; 3x 10 mg/kg s.c.): 57 and 68 and 42
- Mouse survival in days, Average ([3]; 3x 30 mg/kg p.o.): 13 days
- Mouse survival in days, individual mice M1-M3 ([3]; 3x 30 mg/kg p.o.): 13 days and 12 days and 14 days
- % activity (reduction of parasitaemia) ([3]; 3x 30 mg/kg p.o.): 99.4%
- % of control ([3]; 3x 30 mg/kg p.o.): 0.65%
- Parasitized RBC over 100, Average ([3]; 3x 30 mg/kg p.o.): 0.44
- Parasitized RBC over 100, individual mice M1-M3 ([3]; 3x 30 mg/kg p.o.): 0.53 and 0.31 and 0.48
- Mouse survival in days, Average ([3]; 3x 30 mg/kg s.c.): 14 days
- Mouse survival in days, individual mice M1-M3 ([3]; 3x 30 mg/kg s.c.): 14 days
- % activity (reduction of parasitaemia) ([3]; 3x 30 mg/kg s.c.): 62%
- % of control ([3]; 3x 30 mg/kg s.c.): 38%
- Parasitized RBC over 100, Average ([3]; 3x 30 mg/kg s.c.): 26
- Parasitized RBC over 100, individual mice M1-M3 ([3]; 3x 30 mg/kg s.c.): 21 and 24 and 32
- Mouse survival in days, Average ([3]; 3x 100 mg/kg p.o.): 15 days
- Mouse survival in days, individual mice M1-M3 ([3]; 3x 100 mg/kg p.o.): 15 days and 17 days and 14 days
- % activity (reduction of parasitaemia) ([3]; 3x 100 mg/kg p.o.): 99.7%
- % of control ([3]; 3x 100 mg/kg p.o.): 0.30%
- Parasitized RBC over 100, Average ([3]; 3x 100 mg/kg p.o.): 0.20
- Parasitized RBC over 100, individual mice M1-M3 ([3]; 3x 100 mg/kg p.o.): 0.23 (2×) and 0.14
- morphological effects (confocal laser scanning microscopy) ([4]; 5 μM, 6–13 days): Aggregate-like degradation products of the gastrodermis occurred within the gut lumen
- time to death of worms ([4]; 10 µM): 6 days
- time to death of worms ([4]; 20 µM): 2 days
- starting concentration with negative influence on worm physiology ([4]; pairing stability, egg production, survival, bright-field microscopy): 1 μM

Compound: CCc1nc(N)nc(N)c1-c1ccc(Cl)cc1 [Pyrimethamine]
- speed of action (IC50 shift across 24, 48, 72 h) (P. falciparum NF54): slow-acting compound
- IC50 (P. falciparum NF54; [6]): 0.22 ± 0.061 µM
- IC50 (P. falciparum NF54; [7]): 0.0304 ± 0.0076 µM
- IC50 (P. falciparum NF54; [8]): 0.0152 ± 0.0016 µM

Compound: C[C@H]1[C@H](OC(=O)CCC(=O)O)O[C@@H]2O[C@@]3(C)CC[C@H]4[C@H](C)CC[C@@H]1[C@@]24OO3 [Artesunate]
- IC50 (P. falciparum NF54; [6]): 0.0055 ± 0.0008 µM
- IC50 (P. falciparum NF54; [7]): 0.0057 ± 0.0005 µM
- IC50 (P. falciparum NF54; [8]): 0.0047 ± 0.0003 µM

Compound: Oc1ccccc1CNC1CCCC1 (as salt: perchlorate) [15c]
- melting point: 168 to 169 °C

Compound: COc1ccc2c(c1)CCC1C2CC[C@@]2(C)C1CC[C@@H]2N(CCCn1ccnc1)CCc1ccccn1 (stereo partly shown) [STS 948]
- IC50 [1, 5]: 0.675 µM
- GI50 (HUVEC): 7.2 µM
- GI50 (K-562): 6.6 µM
- CC50 at 72 h [2]: 18.3 µM
- DV50 (dissociation voltage at 50%) of haem adduct (haem; ESI-CID, 20 V to 400 V): 367 V
- Bottom plateau (adduct remaining at 400 V) (haem; fragmentor voltage 400 V): 36%

Compound: Oc1ccccc1CNC1CCCCC1 (as salt: perchlorate) [16c]
- melting point: 152 to 153 °C

Compound: Oc1ccccc1CNC1CCCCCCC1 (as salt: perchlorate) [17c]
- melting point: 136 to 138.5 °C
